Results published in US10335398B2 (MAXINASE LIFE SCIENCES LIMITED, priority 2015, dated 2019).
Each block holds one molecule with its values, some of them ahead of it.

How the values were obtained:
[1] = Pharmacokinetic study on Bioadhesive Composition in Beagle dogs; details: for half-life: t1/2, Beagle dogs;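 for all read-outs here: eight Beagle dogs (4 male, 4 female), five-period crossover with 3-day washouts, plasma levels quantified by validated LC-MS/MS, oral dosing after roughly 16 h fast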
Method: (§1) Eight Beagle dogs (4 male and 4 female) participated in the study. The study was preceded in five cross-over periods, separated by 3-day washout period. For oral administration, dogs were fasted about 16 hours prior to the dosing but had free access to water. […] Each oral dosing was administered with 20-30 mL of water. […] Blood samples were collected at pre-dose (0 min) and at 5, 10, 15, 30, 45 minutes; and at 1, 2, 3, 4, 6, 8, 12, 24 hours post-dose. After the plasma-separation process, the samples were analyzed by a validated LC-MS/MS method.

[2] = in vivo; details: both, beagle, dog, plasma, 1 mg
Method: as §1

[3] = Beagle dogs, analyte 7-OH Granisetron, IV Kytril® IV Infusion 1 mg
[4] = Beagle dogs, analyte 7-OH Granisetron, nasal GNS-B01 0.5 mg
[5] = Beagle dogs, analyte 7-OH Granisetron, nasal GNS-B01 1.0 mg
[6] = Beagle dogs, analyte 7-OH Granisetron, nasal GNS-B01 2 mg
[7] = Beagle dogs, analyte 7-OH Granisetron, oral Kytril® tablet 1 mg

- CL/F ([1]; Beagle dogs, analyte Granisetron, nasal GNS-B01 0.5 mg/dog): 4.20 ± 4.35 L/min
- CL/F ([1]; Beagle dogs, analyte Granisetron, nasal GNS-B01 1.0 mg/dog): 4.26 ± 3.69 L/min
- CL/F ([1]; Beagle dogs, analyte Granisetron, nasal GNS-B01 2 mg/dog): 2.80 ± 2.18 L/min
- Tmax ([1]; both, beagle, dog, plasma, inhaled or intranasal, 0.5 mg, Tmax, Beagle dogs, analyte Granisetron, nasal GNS-B01 0.5 mg/dog): 0.448 h
- half-life ([1]; both, beagle, dog, plasma, inhaled or intranasal, 0.5 mg, analyte Granisetron, nasal GNS-B01 0.5 mg/dog): 0.997 ± 0.245 h
- Tmax ([1]; both, beagle, dog, plasma, inhaled or intranasal, 1 mg, Tmax (range), Beagle dogs, intranasal administration 1.0 mg/dog): 0.25 to 0.75 h
- Tmax ([1]; both, beagle, dog, plasma, inhaled or intranasal, 1 mg, Tmax, Beagle dogs, analyte Granisetron, nasal GNS-B01 1.0 mg/dog): 0.438 h
- half-life ([1]; both, beagle, dog, plasma, inhaled or intranasal, 1 mg, analyte Granisetron, nasal GNS-B01 1.0 mg/dog): ~1 h
- Tmax ([1]; both, beagle, dog, plasma, inhaled or intranasal, 2 mg, Tmax, Beagle dogs, analyte Granisetron, nasal GNS-B01 2 mg/dog): 0.397 h
- half-life ([1]; both, beagle, dog, plasma, inhaled or intranasal, 2 mg, analyte Granisetron, nasal GNS-B01 2 mg/dog): 1.3 ± 0.352 h
- Tmax ([1]; both, beagle, dog, plasma, po, 1 mg, Tmax (range), Beagle dogs, oral administration 1.0 mg/dog): 0.5 to 1 h
- AUC(0-t) ([2]; iv): 28.4 ng·h/mL
- MRT ([2]; iv): 1.24 h
- half-life ([2]; iv): 1.1 ± 0.178 h
- MRT ([2]; po): 1.5 h
- Vd/F ([2]; po): 531 ± 234 L
- half-life ([2]; po): ~1 h
Structure (SMILES): CN1[C@@H]2CCC[C@H]1C[C@@H](NC(=O)c1nn(C)c3ccccc13)C2 [Granisetron, 1-methyl-N-((1R,3r,5S)-9-methyl-9-azabicyclo[3.3.1]nonan-3-yl)-1H-indazole-3-carboxamide, reference compound]

- amount of 7-OH Granisetron in plasma after oral dosing compared to intranasal administration ([1]; Beagle dogs): about twice as much
- AUC0-last [1, 3]: 1389 ± 465 ng·min/mL
- AUC0-∞ [1, 3]: 1419 ± 470 ng·min/mL
- CL/F [1, 3]: 0.77 ± 0.25 L/min
- Cmax [1, 3]: 4.28 ± 1.20 ng/mL
- MRT [1, 3]: 4.95 ± 0.317 h
- Tmax [1, 3]: 0.813 ± 0.222 h
- t1/2 [1, 3]: 4.6 ± 0.0033 h
- AUC0-last [1, 4]: 364 ± 263 ng·min/mL
- AUC0-∞ [1, 4]: 386 ± 264 ng·min/mL
- CL/F [1, 4]: 2.98 ± 4.01 L/min
- MRT [1, 4]: 3.92 ± 0.817 h
- Tmax [1, 4]: 1 ± 0.423 h
- t1/2 [1, 4]: 3.88 ± 1.2 h
- AUC0-last [1, 5]: 664 ± 520 ng·min/mL
- AUC0-∞ [1, 5]: 691 ± 520 ng·min/mL
- CL/F [1, 5]: 2.70 ± 2.36 L/min
- Cmax [1, 5]: 2.18 ± 1.54 ng/mL
- MRT [1, 5]: 4.42 ± 0.8 h
- Tmax [1, 5]: 1.06 ± 0.395 h
- t1/2 [1, 5]: 4.37 ± 0.783 h
- AUC0-last [1, 6]: 1549 ± 771 ng·min/mL
- AUC0-∞ [1, 6]: 1609 ± 810 ng·min/mL
- CL/F [1, 6]: 1.50 ± 0.61 L/min
- Cmax [1, 6]: 4.56 ± 2.01 ng/mL
- MRT [1, 6]: 5.42 ± 0.35 h
- Tmax [1, 6]: 1.09 ± 0.597 h
- t1/2 [1, 6]: 5.1 ± 0.55 h
- AUC0-last [1, 7]: 1197 ± 446 ng·min/mL
- AUC0-∞ [1, 7]: 1246 ± 473 ng·min/mL
- CL/F [1, 7]: 0.90 ± 0.32 L/min
- Cmax [1, 7]: 5.73 ± 2.17 ng/mL
- MRT [1, 7]: 4.5 ± 0.683 h
- Tmax [1, 7]: 0.625 ± 0.267 h
- t1/2 [1, 7]: 4.58 ± 1.02 h
- Cmax ([1]; Beagle dogs, analyte metabolite 7-OH Granisetron, nasal GNS-B01 0.5 mg granisetron): 1.26 ± 0.845 ng/mL
Structure (SMILES): CN1[C@@H]2CCC[C@H]1C[C@H](NC(=O)c1nn(C)c3c(O)cccc13)C2 [7-OH Granisetron]
